Inconclusive results and toxic doses are left out.
System: L1210 leukemia ip in BDF1 mice, survival T/C
Experiment: NCI In Vivo Anticancer Drug Screen. Data for tumor model L1210 Leukemia (intraperitoneal) in B6D2F1 (BDF1) mice
Details: endpoint: mean survival time, higher = longer survival
How it was run: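 Value reflects the ratio of survival in compound-treated mice to survival in vehicle-treated controls, with both groups carrying the same transplanted tumor.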

[1] = dose: 100.0 mg/kg/injection, schedule: Q04DX002 (ip), vehicle: saline with Tween-80
[2] = dose: 200.0 mg/kg/injection, schedule: Q04DX002 (ip), vehicle: saline with Tween-80
[3] = dose: 400.0 mg/kg/injection, schedule: Q04DX002 (ip), vehicle: saline with Tween-80
[4] = dose: 100.0 mg/kg/injection, schedule: Q01DX001 (ip), vehicle: saline
[5] = dose: 200.0 mg/kg/injection, schedule: Q01DX001 (ip), vehicle: saline
[6] = dose: 400.0 mg/kg/injection, schedule: Q01DX001 (ip), vehicle: saline
[7] = dose: 100.0 mg/kg/injection, schedule: Q01DX009 (ip), vehicle: saline with Tween-80
[8] = dose: 100.0 mg/kg/injection, schedule: Q01DX009 (ip), vehicle: Klucel (hydroxypropylcellulose) (HPC)
[9] = dose: 200.0 mg/kg/injection, schedule: Q01DX009 (ip), vehicle: Klucel (hydroxypropylcellulose) (HPC)
[10] = dose: 400.0 mg/kg/injection, schedule: Q01DX009 (ip), vehicle: Klucel (hydroxypropylcellulose) (HPC)

CC#CCOCC(O)CCl (stereo not drawn)
T/C (dose: 100.0 mg/kg/injection, schedule: Q01DX009 (ip), vehicle: saline): 94 % of control | T/C (dose: 100.0 mg/kg/injection, schedule: Q04DX003 (ip), vehicle: saline sonified): 108 % of control | T/C (dose: 200.0 mg/kg/injection, schedule: Q01DX009 (ip), vehicle: saline): 91 % of control | T/C (dose: 200.0 mg/kg/injection, schedule: Q04DX003 (ip), vehicle: saline sonified): 103 % of control | T/C (dose: 400.0 mg/kg/injection, schedule: Q01DX009 (ip), vehicle: saline): 105 % of control | T/C (dose: 400.0 mg/kg/injection, schedule: Q04DX003 (ip), vehicle: saline sonified): 117 % of control

O=C(Cc1ccccc1)c1ccc(OCC2CO2)cc1 (stereo not drawn)
T/C (dose: 100.0 mg/kg/injection, schedule: Q04DX003 (ip), vehicle: saline with Tween-80): 96 % of control | T/C (dose: 200.0 mg/kg/injection, schedule: Q04DX003 (ip), vehicle: saline with Tween-80): 94 % of control | T/C (dose: 400.0 mg/kg/injection, schedule: Q04DX003 (ip), vehicle: saline with Tween-80): 94 % of control

CCCCN=C(NCCCC)c1ccc(NC(=O)c2ccc(C(=O)Nc3ccc(C(=NCCCC)NCCCC)cc3)cc2)cc1
T/C (dose: 0.12 mg/kg/injection, schedule: Q01DX015 (ip), vehicle: methylcellulose (MC)): 94 % of control | T/C (dose: 0.25 mg/kg/injection, schedule: Q01DX015 (ip), vehicle: methylcellulose (MC)): 94 % of control | T/C (dose: 0.5 mg/kg/injection, schedule: Q01DX015 (ip), vehicle: methylcellulose (MC)): 90 % of control | T/C (dose: 1.0 mg/kg/injection, schedule: Q01DX015 (ip), vehicle: methylcellulose (MC)): 102 % of control | T/C (dose: 2.0 mg/kg/injection, schedule: Q01DX015 (ip), vehicle: methylcellulose (MC)): 108 % of control | T/C (dose: 4.0 mg/kg/injection, schedule: Q01DX015 (ip), vehicle: methylcellulose (MC)): 110 % of control | T/C (dose: 8.0 mg/kg/injection, schedule: Q01DX015 (ip), vehicle: methylcellulose (MC)): 98 % of control

CCOC(=O)Nc1cc(NC(C)CCCN(CC)CC)nc2nc(-c3ccc(Cl)cc3)cnc12 (stereo not drawn)
T/C (dose: 9.5 mg/kg/injection, schedule: Q01DX001 (ip), vehicle: saline): 100 % of control | T/C (dose: 19.0 mg/kg/injection, schedule: Q01DX001 (ip), vehicle: saline): 102 % of control | T/C (dose: 38.0 mg/kg/injection, schedule: Q01DX001 (ip), vehicle: saline): 89 % of control | T/C (dose: 75.0 mg/kg/injection, schedule: Q01DX001 (ip), vehicle: saline): 100 % of control

C[N+]1(CCC[N+]2(C)CC3CC=CCC3C2)CCOCC1 (stereo not drawn)
T/C (dose: 100.0 mg/kg/injection, schedule: Q04DX003 (ip), vehicle: saline): 92 % of control | T/C (dose: 200.0 mg/kg/injection, schedule: Q04DX003 (ip), vehicle: saline): 92 % of control | T/C (dose: 400.0 mg/kg/injection, schedule: Q04DX003 (ip), vehicle: saline): 92 % of control

COc1ccc(C(N)=O)cc1
T/C [1]: 94 % of control | T/C [2]: 94 % of control | T/C [3]: 109 % of control

COC(=O)c1cccn1C(=O)c1ccccc1[N+](=O)[O-]
T/C (dose: 50.0 mg/kg/injection, schedule: Q04DX002 (ip), vehicle: other): 105 % of control | T/C (dose: 100.0 mg/kg/injection, schedule: Q04DX002 (ip), vehicle: other): 97 % of control | T/C (dose: 200.0 mg/kg/injection, schedule: Q04DX002 (ip), vehicle: other): 94 % of control

C=CCNc1ncnc2c1ncn2C1OC(CO)C(O)C1O (stereo not drawn)
T/C (dose: 9.5 mg/kg/injection, schedule: Q01DX001 (ip), vehicle: other): 100 % of control | T/C (dose: 19.0 mg/kg/injection, schedule: Q01DX001 (ip), vehicle: other): 97 % of control | T/C (dose: 33.0 mg/kg/injection, schedule: Q01DX009 (ip), vehicle: other): 104 % of control | T/C (dose: 38.0 mg/kg/injection, schedule: Q01DX001 (ip), vehicle: other): 94 % of control | T/C (dose: 112.0 mg/kg/injection, schedule: Q01DX009 (ip), vehicle: other): 166 % of control

CC(=O)NC(C)(S)C(=O)O (stereo not drawn)
T/C [4]: 103 % of control | T/C [5]: 96 % of control | T/C [6]: 107 % of control

O=C(N/N=C\c1ccc(Cl)cc1Cl)c1ccc(F)cc1
T/C (dose: 25.0 mg/kg/injection, schedule: Q01DX009 (ip), vehicle: saline with Tween-80): 96 % of control | T/C (dose: 50.0 mg/kg/injection, schedule: Q01DX009 (ip), vehicle: saline with Tween-80): 94 % of control | T/C [7]: 92 % of control

COc1cc(N(CCO)CCO)ccc1NC(=O)c1ccccc1
T/C (dose: 12.5 mg/kg/injection, schedule: Q01DX001 (ip), vehicle: carboxymethylcellulose (CMC)): 93 % of control | T/C (dose: 12.5 mg/kg/injection, schedule: Q01DX009 (ip), vehicle: Klucel (hydroxypropylcellulose) (HPC)): 104 % of control | T/C (dose: 12.5 mg/kg/injection, schedule: Q04DX003 (ip), vehicle: Klucel (hydroxypropylcellulose) (HPC)): 97 % of control | T/C (dose: 25.0 mg/kg/injection, schedule: Q01DX001 (ip), vehicle: carboxymethylcellulose (CMC)): 98 % of control | T/C (dose: 25.0 mg/kg/injection, schedule: Q01DX009 (ip), vehicle: Klucel (hydroxypropylcellulose) (HPC)): 104 % of control | T/C (dose: 25.0 mg/kg/injection, schedule: Q04DX003 (ip), vehicle: Klucel (hydroxypropylcellulose) (HPC)): 95 % of control | T/C (dose: 50.0 mg/kg/injection, schedule: Q01DX009 (ip), vehicle: Klucel (hydroxypropylcellulose) (HPC)): 97 % of control | T/C (dose: 50.0 mg/kg/injection, schedule: Q04DX003 (ip), vehicle: Klucel (hydroxypropylcellulose) (HPC)): 97 % of control

COc1ccc(Cl)cc1NS(=O)(=O)c1ccc(Cl)cc1
T/C [8]: 97 % of control | T/C [9]: 102 % of control | T/C [10]: 92 % of control

Oc1cccc(-c2nnc(-c3cccc(O)c3)nn2)c1
T/C [4]: 101 % of control | T/C [5]: 96 % of control | T/C [6]: 102 % of control

Nc1nc(=S)c2[nH]c(=S)[nH]c2[nH]1
T/C (dose: 12.0 mg/kg/injection, schedule: Q01DX009 (ip), vehicle: saline): 119 % of control | T/C (dose: 15.0 mg/kg/injection, schedule: Q01DX Z (ip), vehicle: saline): 119 % of control | T/C (dose: 23.0 mg/kg/injection, schedule: Q01DX Z (ip), vehicle: saline): 124 % of control | T/C (dose: 175.0 mg/kg/injection, schedule: Q01DX001 (ip), vehicle: saline): 121 % of control | T/C (dose: 400.0 mg/kg/injection, schedule: Q01DX Z (ip), vehicle: carboxymethylcellulose (CMC)): 98 % of control

C=CC(O)c1ccccc1 (stereo not drawn)
T/C (dose: 75.0 mg/kg/injection, schedule: Q01DX009 (ip), vehicle: saline with Tween-80): 90 % of control | T/C (dose: 75.0 mg/kg/injection, schedule: Q04DX003 (ip), vehicle: saline with Tween-80): 89 % of control | T/C (dose: 150.0 mg/kg/injection, schedule: Q01DX009 (ip), vehicle: saline with Tween-80): 87 % of control | T/C (dose: 150.0 mg/kg/injection, schedule: Q04DX003 (ip), vehicle: saline with Tween-80): 109 % of control | T/C (dose: 300.0 mg/kg/injection, schedule: Q01DX009 (ip), vehicle: saline with Tween-80): 88 % of control | T/C (dose: 300.0 mg/kg/injection, schedule: Q04DX003 (ip), vehicle: saline with Tween-80): 105 % of control

CCCCCCCCCC[As]1c2ccccc2Nc2ccccc21
T/C (dose: 50.0 mg/kg/injection, schedule: Q04DX002 (ip), vehicle: saline with Tween-80): 92 % of control | T/C [1]: 89 % of control | T/C [2]: 96 % of control

CC(=O)c1cccc(F)n1
T/C (dose: 100.0 mg/kg/injection, schedule: Q04DX002 (ip), vehicle: Klucel (hydroxypropylcellulose) (HPC)): 93 % of control | T/C (dose: 200.0 mg/kg/injection, schedule: Q04DX002 (ip), vehicle: Klucel (hydroxypropylcellulose) (HPC)): 110 % of control | T/C (dose: 400.0 mg/kg/injection, schedule: Q04DX002 (ip), vehicle: Klucel (hydroxypropylcellulose) (HPC)): 100 % of control

FC(F)(F)c1cccc(NC(=S)Nc2ccccc2S)c1
T/C [7]: 103 % of control | T/C [1]: 93 % of control | T/C (dose: 200.0 mg/kg/injection, schedule: Q01DX009 (ip), vehicle: saline with Tween-80): 98 % of control | T/C [2]: 96 % of control | T/C (dose: 400.0 mg/kg/injection, schedule: Q01DX009 (ip), vehicle: saline with Tween-80): 124 % of control | T/C [3]: 101 % of control

CC(=O)CC(=O)N1CCCC(C)C1 (stereo not drawn)
T/C [8]: 102 % of control | T/C (dose: 100.0 mg/kg/injection, schedule: Q04DX003 (ip), vehicle: Klucel (hydroxypropylcellulose) (HPC)): 104 % of control | T/C [9]: 92 % of control | T/C (dose: 200.0 mg/kg/injection, schedule: Q04DX003 (ip), vehicle: Klucel (hydroxypropylcellulose) (HPC)): 106 % of control | T/C [10]: 96 % of control | T/C (dose: 400.0 mg/kg/injection, schedule: Q04DX003 (ip), vehicle: Klucel (hydroxypropylcellulose) (HPC)): 106 % of control
